Here are results for two compounds from ChEMBL document CHEMBL5346879, “Identification of a short ACE2-derived stapled peptide targeting the SARS-CoV-2 spike protein” (Eur J Med Chem, 2023).

pIC50: −log10 of the molar value. Where a SMILES comes first, the peptide text is derived from it. Bridges are numbered along the chain shown (N, C = ends). [ ]: non-standard residue; d: D form. S5 = C=CCCC[C@](C)(N)C(=O)O

Data set [1] can be described thus: Stability in human plasma assessed as peptide degradation at 200 ug/ml incubated for 48 hrs by LC-MS/MS analysis. As to conditions: at 200 µg/mL. Format: ADME, cell-free.
Data set [2] addresses Spike glycoprotein/Angiotensin-converting enzyme 2 (Severe acute respiratory syndrome coronavirus 2) (UniProt Q9BYF1+P0DTC2). Description: Inhibition of SARS-CoV-2 spike protein RBD- human ACE2 interaction at 30 uM incubated for 1 hr by colorimetric ELISA assay relative to control. On the technique in general: ELISA stands for enzyme-linked immunosorbent assay.
Data set [3] concerns the target Spike glycoprotein/Angiotensin-converting enzyme 2 (Severe acute respiratory syndrome coronavirus 2, UniProt P0DTC2). Description: Inhibition of SARS-CoV-2 spike protein RBD- human ACE2 interaction incubated for 1 hr by colorimetric ELISA assay.

For H-HEAEDLFYQ-NH2, the Stability result in data set [1] was “Stable”.

Broadly, the inhibition is the change of the read-out against control, counted positive when it falls. Higher therefore signals strong suppression. Usually pIC50 stands for the negative decadic logarithm of the IC50, by convention in mol/L. Low readings indicate a high IC50, high ones a low IC50. `CC(C)C[C@@H]1NC(=O)[C@H](CC(=O)O)NC(=O)[C@H](CCC(=O)O)NC(=O)[C@@](C)(NC(=O)[C@H](CCC(=O)O)NC(=O)[C@@H](N)Cc2c[nH]cn2)CCC/C=C\CCC[C@@](C)(C(=O)N[C@@H](Cc2ccc(O)cc2)C(=O)N[C@@H](CCC(N)=O)C(N)=O)NC1=O` (H-HE[S5]EDL[S5]YQ-NH2; staple (Z) 3-7) gave an inhibition in data set [2] of 55%. This compound showed a pIC50 in data set [3] of 4.68. The Stability result in data set [1] is on record as “Stable”.
